Results: patent US6479480B1, “Phenylindole derivatives as 5-ht2a receptor ligands” (Merck Sharp & Dohme Ltd., priority 1998, dated 2002)

Test system: not given
Settings: not given

Structure (SMILES) | melting point [°C]
O=C(O)C(=O)O.c1ccc(CN2CCCC2Cc2c(-c3ccccc3)[nH]c3ccccc23)cc1 (centres unmarked) | 210
O=C(O)C(=O)O.c1ccc(CN2CCC(Cc3c(-c4ccccc4)[nH]c4ccccc34)C2)cc1 (centres unmarked) | 95
CN1CCN(C)[C@@H](Cc2c(-c3ccccc3)[nH]c3ccccc23)C1.Cl.Cl | 253
CN1CCCC[C@H]1Cc1c(-c2ccccc2)[nH]c2ccccc12 | 135
CN1C2CCC(CC2)C1Cc1c(-c2ccccc2)[nH]c2ccccc12.O=C(O)C(=O)O (centres unmarked) | 193
CN1CCNC[C@@H]1Cc1c(-c2cccc(F)c2)[nH]c2cc(F)ccc12.Cl.Cl | 200
CN1CCN[C@@H](Cc2c(-c3cccc(F)c3)[nH]c3cc(F)ccc23)C1.Cl.Cl (hydrate or solvate) | 228
CN1C2CCC(C2)C1Cc1c(-c2ccccc2)[nH]c2ccccc12.Cl (centres unmarked) | 176
O=C(O)C(=O)O.c1ccc(CCN2CCCCC2Cc2c(-c3ccccc3)[nH]c3ccccc23)cc1 (centres unmarked) | 232
CN1CCCC(Cc2c(-c3ccccc3)[nH]c3ccccc23)C1.O=C(O)C(=O)O (centres unmarked) (hydrate or solvate) | 234
CN1CCC[C@H]1Cc1c(-c2ccccc2)[nH]c2ccccc12 | 133
O=C(O)C(=O)O.c1ccc(CN2CCCCC2Cc2c(-c3ccccc3)[nH]c3ccccc23)cc1 (centres unmarked) | 235
O=C(O)C(=O)O.c1ccc(CCN2CCC(Cc3c(-c4ccccc4)[nH]c4ccccc34)C2)cc1 (centres unmarked) | 100
CN1CCCC[C@@H]1Cc1c(-c2ccccc2)[nH]c2ccccc12 (hydrate or solvate) | 150
COCCN1CCCCC1Cc1c(-c2ccccc2)[nH]c2ccccc12.O=C(O)C(=O)O (centres unmarked) | 185
CCN1CCCCC1Cc1c(-c2ccccc2)[nH]c2ccccc12.O=C(O)C(=O)O (centres unmarked) | 197
O=C(O)C(=O)O.c1ccc(CCN2CCCC2Cc2c(-c3ccccc3)[nH]c3ccccc23)cc1 (centres unmarked) | 182
C[C@@H]1CC[C@H](Cc2c(-c3ccccc3)[nH]c3ccccc23)N1C.O=C(O)C(=O)O (relative stereo) | 183
CN1CCC(Cc2c(-c3ccccc3)[nH]c3ccccc23)C1.O=C(O)C(=O)O (centres unmarked) | 80
O=C(O)C(=O)O.c1ccc(CCN2CCCC(Cc3c(-c4ccccc4)[nH]c4ccccc34)C2)cc1 (centres unmarked) (hydrate or solvate) | 128
CN1CCN(C)[C@@H](Cc2c(-c3ccccc3)[nH]c3c(Cl)cccc23)C1.Cl.Cl | 260
CN1CCC[C@@H]1Cc1c(-c2ccccc2)[nH]c2ccccc12 | 132

Test system: schizophrenic patients
Settings: multicentre, placebo-controlled study; cited from earlier work

Structure (SMILES) | efficacy for antipsychotic potential | neurological adverse effects
COc1cccc(C(O)C2CCN(CCc3ccc(F)cc3)CC2)c1OC (stereo not drawn) [MDL-100,907, (+)-α-(2,3-dimethoxyphenyl)-1-[2-(4-fluorophenyl)-ethyl]-4-piperidinemethanol] | demonstrated efficacy | no neurological adverse effects

Test system: animal models
Settings: preclinical studies; cited from earlier work

Structure (SMILES) | block of apomorphine-induced stereotyped behaviour
COc1cccc(C(O)C2CCN(CCc3ccc(F)cc3)CC2)c1OC (stereo not drawn) [MDL-100,907, (+)-α-(2,3-dimethoxyphenyl)-1-[2-(4-fluorophenyl)-ethyl]-4-piperidinemethanol] | failed to block apomorphine-induced stereotyped behaviour

Molecular target: human dopamine D2 receptor (Homo sapiens, UniProt P14416)
Sequence (P14416 whole entry): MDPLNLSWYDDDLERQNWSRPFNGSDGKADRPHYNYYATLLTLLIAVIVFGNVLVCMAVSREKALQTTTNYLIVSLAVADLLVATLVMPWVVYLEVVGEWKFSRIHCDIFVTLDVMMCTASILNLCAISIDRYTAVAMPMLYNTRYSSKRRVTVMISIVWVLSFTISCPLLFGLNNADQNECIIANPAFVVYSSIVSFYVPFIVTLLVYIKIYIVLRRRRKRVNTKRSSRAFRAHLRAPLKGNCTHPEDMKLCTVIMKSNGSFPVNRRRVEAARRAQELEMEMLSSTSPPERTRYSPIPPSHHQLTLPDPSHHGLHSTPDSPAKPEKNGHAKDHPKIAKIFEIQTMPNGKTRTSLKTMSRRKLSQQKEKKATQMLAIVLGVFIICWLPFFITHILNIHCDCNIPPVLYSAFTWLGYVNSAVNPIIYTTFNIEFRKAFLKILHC
Settings: cited from earlier work

Structure (SMILES) | activity at the human dopamine D2 receptor
COc1cccc(C(O)C2CCN(CCc3ccc(F)cc3)CC2)c1OC (stereo not drawn) [MDL-100,907, (+)-α-(2,3-dimethoxyphenyl)-1-[2-(4-fluorophenyl)-ethyl]-4-piperidinemethanol] | essentially devoid of activity
